Data reported in ChEMBL document CHEMBL1681689, “Discovery of N-methyl-1-(1-phenylcyclohexyl)ethanamine, a novel triple serotonin, norepinephrine and dopamine reuptake inhibitor” (Bioorg Med Chem Lett, 2011).
Calls of active or inactive are those of the source. No cut-off for these calls is given here.

Columns and labels:
Liver microsomes = assay: (§1) Half life in human liver microsomes by in vitro metabolic stability assay; type: ADME, Microsome; settings: microsomes
[1] = Half life in mouse liver microsomes by in vitro metabolic stability assay; type: ADME, Microsome; settings: for t1/2: microsomes; for half-life: liver microsomes
Brain [2] = assay: Drug level in mouse brain at 10 mg/kg, po; type: functional, organism-based; set-up: dose 10 mg/kg
Plasma [3] = assay: Drug level in mouse plasma at 30 mg/kg, po; type: functional, organism-based; set-up: dose 30 mg/kg
Brain [4] = assay: Drug level in mouse brain at 30 mg/kg, po; type: functional, organism-based; set-up: dose 30 mg/kg
Mus musculus [5] = assay: Antidepressant activity in po dosed mouse assessed as reduction of immobility duration measured by tail suspension test; type: functional, organism-based
Plasma [6] = assay: Drug level in mouse plasma at 3 mg/kg, po; type: functional, organism-based; set-up: dose 3 mg/kg
Mus musculus [7] = assay: Antidepressant activity in mouse assessed as reduction of immobility duration measured at first 5 mins time point at 10 or 30 mg/kg, po by tail suspension test; type: functional, organism-based; set-up: dose 30 mg/kg
Plasma [8] = assay: Drug level in mouse plasma at 10 mg/kg, po; type: functional, organism-based; set-up: dose 10 mg/kg
Brain [9] = assay: Drug level in mouse brain at 3 mg/kg, po; type: functional, organism-based; set-up: dose 3 mg/kg
[10] = as §1; type: ADME, Microsome; settings: liver microsomes
[11] = biological target: T1, Voltage-gated inwardly rectifying potassium channel KCNH2 (Homo sapiens, UniProt Q12809)
Cytochrome P450 3A4 = Cytochrome P450 3A4 (Homo sapiens, UniProt P08684); assay: Inhibition of CYP3A4; type: ADME
Cytochrome P450 2C19 = Cytochrome P450 2C19 (Homo sapiens, UniProt P33261); assay: Inhibition of CYP2C19; type: ADME
Mus musculus [12] = assay: Antidepressant activity in mouse assessed as reduction in immobility duration pretreated 30 mins before at 30 mg/kg, po by tail suspension test; type: functional; set-up: scale not given: the % may be the effect or the level left
Cytochrome P450 2D6 = Cytochrome P450 2D6 (Homo sapiens, UniProt P10635); assay: Inhibition of CYP2D6; type: ADME
Mus musculus [13] = assay: Antidepressant activity in mouse assessed as reduction in immobility duration pretreated 30 mins before at 100 mg/kg, po by tail suspension test; type: functional; set-up: scale not given: the % may be the effect or the level left
[14] = Inhibition of CYP1A; type: ADME
Cytochrome P450 2C9 = Cytochrome P450 2C9 (Homo sapiens, UniProt P11712); assay: Inhibition of CYP2C9; type: ADME
Mus musculus [15] = assay: Antidepressant activity in mouse assessed as reduction in immobility duration pretreated 30 mins before at 10 mg/kg, po by tail suspension test; type: functional; set-up: scale not given: the % may be the effect or the level left
[16] = biological target: T1, Voltage-gated inwardly rectifying potassium channel KCNH2; remark: listed apart in the source
[17] = biological target: Sodium-dependent noradrenaline transporter (Homo sapiens, UniProt P23975)
[18] = biological target: Sodium-dependent serotonin transporter (Homo sapiens, UniProt P31645); type: cell-based, LLC-PK1
[19] = biological target: Sodium-dependent dopamine transporter (Homo sapiens, UniProt Q01959); type: cell-based, COS-7
Sequence of Sodium-dependent dopamine transporter (Q01959 whole entry): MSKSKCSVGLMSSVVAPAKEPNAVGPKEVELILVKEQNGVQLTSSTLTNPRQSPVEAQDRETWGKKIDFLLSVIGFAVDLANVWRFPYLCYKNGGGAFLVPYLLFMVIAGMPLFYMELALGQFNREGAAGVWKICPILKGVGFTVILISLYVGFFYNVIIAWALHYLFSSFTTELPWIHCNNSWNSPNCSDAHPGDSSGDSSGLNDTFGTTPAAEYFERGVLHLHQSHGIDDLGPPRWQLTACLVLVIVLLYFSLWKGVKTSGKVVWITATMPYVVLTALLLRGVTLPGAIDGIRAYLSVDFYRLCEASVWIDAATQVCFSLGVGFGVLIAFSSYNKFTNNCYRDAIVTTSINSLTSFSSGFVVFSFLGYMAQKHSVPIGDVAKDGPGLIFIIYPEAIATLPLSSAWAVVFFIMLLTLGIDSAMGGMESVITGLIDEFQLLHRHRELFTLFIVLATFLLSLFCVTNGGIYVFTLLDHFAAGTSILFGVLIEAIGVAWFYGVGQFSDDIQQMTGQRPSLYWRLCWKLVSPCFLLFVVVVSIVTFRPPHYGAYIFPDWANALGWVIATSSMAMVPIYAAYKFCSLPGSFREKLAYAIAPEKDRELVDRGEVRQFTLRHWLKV

Sequence of Cytochrome P450 2D6 (P10635 whole entry): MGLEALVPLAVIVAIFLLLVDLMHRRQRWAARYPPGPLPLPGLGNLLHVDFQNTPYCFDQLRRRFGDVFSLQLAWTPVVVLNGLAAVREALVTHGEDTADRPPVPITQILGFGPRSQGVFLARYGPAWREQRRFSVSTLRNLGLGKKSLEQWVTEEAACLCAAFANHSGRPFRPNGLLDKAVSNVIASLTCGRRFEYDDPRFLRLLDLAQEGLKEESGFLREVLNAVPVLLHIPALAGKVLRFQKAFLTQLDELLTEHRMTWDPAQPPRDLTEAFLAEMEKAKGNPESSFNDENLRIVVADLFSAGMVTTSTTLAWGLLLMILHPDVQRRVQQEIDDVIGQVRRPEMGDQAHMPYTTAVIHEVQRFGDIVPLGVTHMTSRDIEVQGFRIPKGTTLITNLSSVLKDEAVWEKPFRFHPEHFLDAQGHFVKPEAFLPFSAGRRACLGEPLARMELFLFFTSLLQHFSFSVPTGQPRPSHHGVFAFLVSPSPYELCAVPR
T1 sequence (Q12809 whole entry): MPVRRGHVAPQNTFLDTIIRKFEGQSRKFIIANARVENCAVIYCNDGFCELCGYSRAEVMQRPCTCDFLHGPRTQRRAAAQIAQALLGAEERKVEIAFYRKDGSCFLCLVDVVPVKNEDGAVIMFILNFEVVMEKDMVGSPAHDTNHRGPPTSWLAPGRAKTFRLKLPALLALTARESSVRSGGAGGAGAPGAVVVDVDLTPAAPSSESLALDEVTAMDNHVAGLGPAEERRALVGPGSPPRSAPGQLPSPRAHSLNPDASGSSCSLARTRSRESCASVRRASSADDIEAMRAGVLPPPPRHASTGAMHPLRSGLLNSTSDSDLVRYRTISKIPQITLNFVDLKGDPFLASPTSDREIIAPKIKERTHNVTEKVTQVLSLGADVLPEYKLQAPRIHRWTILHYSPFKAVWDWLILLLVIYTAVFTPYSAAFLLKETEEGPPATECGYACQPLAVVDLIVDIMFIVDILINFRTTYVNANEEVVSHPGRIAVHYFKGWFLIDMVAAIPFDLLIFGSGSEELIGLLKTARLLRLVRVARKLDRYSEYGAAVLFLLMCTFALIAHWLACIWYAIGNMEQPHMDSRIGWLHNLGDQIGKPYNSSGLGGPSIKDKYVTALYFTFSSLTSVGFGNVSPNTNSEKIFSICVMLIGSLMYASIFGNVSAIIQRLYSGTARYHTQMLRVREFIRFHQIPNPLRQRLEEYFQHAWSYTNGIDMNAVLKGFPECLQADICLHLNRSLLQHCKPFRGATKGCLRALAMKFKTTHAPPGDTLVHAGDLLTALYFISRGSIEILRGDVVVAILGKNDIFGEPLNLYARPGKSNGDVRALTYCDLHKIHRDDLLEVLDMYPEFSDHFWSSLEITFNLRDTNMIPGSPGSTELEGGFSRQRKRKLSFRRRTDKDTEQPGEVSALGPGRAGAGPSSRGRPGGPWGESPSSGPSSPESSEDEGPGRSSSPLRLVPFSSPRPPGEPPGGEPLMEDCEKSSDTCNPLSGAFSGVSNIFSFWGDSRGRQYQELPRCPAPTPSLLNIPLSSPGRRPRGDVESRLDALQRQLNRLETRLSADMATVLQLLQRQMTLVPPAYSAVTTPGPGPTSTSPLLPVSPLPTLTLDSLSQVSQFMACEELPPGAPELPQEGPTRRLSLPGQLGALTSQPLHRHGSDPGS
Sequence of Cytochrome P450 2C19 (P33261 whole entry): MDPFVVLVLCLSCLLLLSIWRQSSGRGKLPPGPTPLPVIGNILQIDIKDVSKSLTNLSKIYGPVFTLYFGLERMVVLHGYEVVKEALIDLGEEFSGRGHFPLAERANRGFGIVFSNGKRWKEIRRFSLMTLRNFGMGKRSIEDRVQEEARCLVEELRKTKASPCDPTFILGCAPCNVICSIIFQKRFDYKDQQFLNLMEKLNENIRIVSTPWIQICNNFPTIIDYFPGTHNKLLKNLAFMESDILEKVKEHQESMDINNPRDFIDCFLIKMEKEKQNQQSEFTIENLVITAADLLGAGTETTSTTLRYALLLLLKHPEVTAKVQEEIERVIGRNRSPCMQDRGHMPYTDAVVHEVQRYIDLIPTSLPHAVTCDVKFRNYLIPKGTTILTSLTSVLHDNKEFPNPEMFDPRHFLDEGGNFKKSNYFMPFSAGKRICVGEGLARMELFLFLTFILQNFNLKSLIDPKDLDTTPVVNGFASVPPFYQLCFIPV
Sequence of Cytochrome P450 3A4 (P08684 whole entry): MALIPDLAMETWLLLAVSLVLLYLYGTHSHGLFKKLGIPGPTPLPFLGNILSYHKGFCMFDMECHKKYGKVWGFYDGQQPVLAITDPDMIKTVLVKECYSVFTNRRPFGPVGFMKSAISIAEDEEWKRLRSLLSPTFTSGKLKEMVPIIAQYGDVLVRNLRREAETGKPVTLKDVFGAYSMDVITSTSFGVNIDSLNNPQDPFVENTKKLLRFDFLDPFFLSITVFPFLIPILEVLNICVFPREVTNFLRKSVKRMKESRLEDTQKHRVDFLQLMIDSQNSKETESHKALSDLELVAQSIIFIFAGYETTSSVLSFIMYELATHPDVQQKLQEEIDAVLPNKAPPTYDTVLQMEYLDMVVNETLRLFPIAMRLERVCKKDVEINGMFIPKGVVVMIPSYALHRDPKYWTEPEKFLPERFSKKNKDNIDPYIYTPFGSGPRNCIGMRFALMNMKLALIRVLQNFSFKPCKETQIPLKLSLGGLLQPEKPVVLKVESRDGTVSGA
Sequence of Cytochrome P450 2C9 (P11712 whole entry): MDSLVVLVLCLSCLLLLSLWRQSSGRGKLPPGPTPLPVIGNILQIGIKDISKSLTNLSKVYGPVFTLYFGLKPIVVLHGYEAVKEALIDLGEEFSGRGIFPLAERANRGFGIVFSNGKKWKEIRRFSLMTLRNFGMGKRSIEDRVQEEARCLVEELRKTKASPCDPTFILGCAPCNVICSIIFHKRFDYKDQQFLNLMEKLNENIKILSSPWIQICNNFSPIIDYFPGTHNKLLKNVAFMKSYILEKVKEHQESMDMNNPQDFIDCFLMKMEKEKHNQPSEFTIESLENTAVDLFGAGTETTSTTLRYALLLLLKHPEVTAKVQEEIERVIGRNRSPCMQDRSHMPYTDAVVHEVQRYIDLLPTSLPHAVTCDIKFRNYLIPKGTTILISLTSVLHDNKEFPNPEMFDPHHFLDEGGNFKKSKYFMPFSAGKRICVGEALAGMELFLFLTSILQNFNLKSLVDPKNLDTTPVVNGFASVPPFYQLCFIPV
Sequence of Sodium-dependent serotonin transporter (P31645 whole entry): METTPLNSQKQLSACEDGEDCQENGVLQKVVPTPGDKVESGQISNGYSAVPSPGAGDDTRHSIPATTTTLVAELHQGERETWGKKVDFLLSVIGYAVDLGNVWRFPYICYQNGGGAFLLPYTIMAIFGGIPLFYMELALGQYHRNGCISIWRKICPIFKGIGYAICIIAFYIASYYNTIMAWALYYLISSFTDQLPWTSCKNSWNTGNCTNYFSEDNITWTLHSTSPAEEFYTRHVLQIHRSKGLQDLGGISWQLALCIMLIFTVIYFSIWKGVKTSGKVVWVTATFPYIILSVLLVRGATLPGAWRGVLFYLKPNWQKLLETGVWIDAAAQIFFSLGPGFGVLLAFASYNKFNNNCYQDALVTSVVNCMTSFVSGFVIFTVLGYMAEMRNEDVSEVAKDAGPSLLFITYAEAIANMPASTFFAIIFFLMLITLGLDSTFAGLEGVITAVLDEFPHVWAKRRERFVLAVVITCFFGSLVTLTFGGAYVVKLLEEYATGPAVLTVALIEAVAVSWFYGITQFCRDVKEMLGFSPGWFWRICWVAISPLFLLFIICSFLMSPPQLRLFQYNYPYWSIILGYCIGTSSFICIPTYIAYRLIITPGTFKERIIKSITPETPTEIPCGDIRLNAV
Sequence of Sodium-dependent noradrenaline transporter (P23975 whole entry): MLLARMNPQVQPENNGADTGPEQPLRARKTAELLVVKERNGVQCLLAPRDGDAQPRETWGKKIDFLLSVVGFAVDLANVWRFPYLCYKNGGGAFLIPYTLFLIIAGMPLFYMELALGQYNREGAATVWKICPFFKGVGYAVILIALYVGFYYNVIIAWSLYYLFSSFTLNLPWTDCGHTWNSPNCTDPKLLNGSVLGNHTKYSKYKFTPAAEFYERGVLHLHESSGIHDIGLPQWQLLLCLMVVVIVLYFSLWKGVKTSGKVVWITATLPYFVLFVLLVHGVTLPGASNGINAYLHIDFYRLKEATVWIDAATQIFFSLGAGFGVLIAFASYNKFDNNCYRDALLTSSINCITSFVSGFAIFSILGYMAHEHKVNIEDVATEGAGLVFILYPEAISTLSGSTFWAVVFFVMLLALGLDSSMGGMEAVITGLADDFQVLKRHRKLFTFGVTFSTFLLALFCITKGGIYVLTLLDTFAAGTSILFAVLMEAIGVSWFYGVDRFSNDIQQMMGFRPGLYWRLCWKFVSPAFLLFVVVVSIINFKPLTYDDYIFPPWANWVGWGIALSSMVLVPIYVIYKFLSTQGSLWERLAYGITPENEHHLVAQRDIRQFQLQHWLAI

Q: With `CC(N)C1(c2ccc3ccccc3c2)CCCCC1` (single isomer, unassigned) as the molecule, how does the t1/2 (Liver microsomes) read?
A: Its t1/2 is 150 min.

Q: And the t1/2 [1]?
A: Its t1/2 is 11 min.

Q: For `CC(N(C)C)C1(c2ccc(Cl)c(Cl)c2)CCCCC1` (single isomer, unassigned), which t1/2 [1] is on record?
A: Its t1/2 is 28 min.

Q: Which t1/2 [1] does the source give for `CC(N(C)C)C1(c2ccc3ccccc3c2)CCCCC1` (single isomer, unassigned; enantiomer 2) here?
A: Its t1/2 is 23 min.

Q: For `CNC(C)C1(c2ccc(Cl)c(Cl)c2)CCCCC1` (single isomer, unassigned), which t1/2 (Liver microsomes) is on record?
A: The t1/2 was 71 min.

Q: And the t1/2 [1]?
A: Its t1/2 is 54 min.

Q: Which t1/2 (Liver microsomes) does the source give for `CNC(C)C1(c2ccc(Cl)c(Cl)c2)CCCCC1` (racemic) here?
A: The t1/2 was 281 min.

Q: And the t1/2 [1]?
A: Its t1/2 is 154 min.

Q: Which results are given for `CNC(C)C1(c2ccc(Cl)c(Cl)c2)CCCCC1` (stereo in doubt; 24)?
A: t1/2 (Liver microsomes): 53 min; t1/2 [1]: 52 min

Q: With `CNC(C)C1(c2ccc3ccccc3c2)CCCCC1` (single isomer, unassigned; enantiomer 2) as the molecule, how does the t1/2 (Liver microsomes) read?
A: The t1/2 was 101 min.

Q: And the t1/2 [1]?
A: The t1/2 was 11 min.

Q: Which Drug uptake (Brain [2]) does the source give for `CNC(C)C1(c2ccc(Cl)c(Cl)c2)CCCCC1` (single isomer, unassigned; enantiomer 2) here?
A: Its Drug uptake is 782 ng/g.

Q: And the Cp (Plasma [3])?
A: The Cp was 544 ng/mL.

Q: What about the Drug uptake (Brain [4]) of the same molecule?
A: Its Drug uptake is 7070 ng/g.

Q: What about the Activity (Mus musculus [5]) of the same molecule?
A: Its Activity is “Dose-dependent effect”.

Q: And the Cp (Plasma [6])?
A: The Cp was 9 ng/mL.

Q: And the Activity (Mus musculus [7])?
A: Its Activity is “inactive”.

Q: What about the Cp (Plasma [8]) of the same molecule?
A: Its Cp is 44 ng/mL.

Q: What about the Drug uptake (Brain [9]) of the same molecule?
A: Its Drug uptake is 145 ng/g.

Q: What does the source list for `CCC(N)C1(c2ccc(Cl)c(Cl)c2)CCCCC1` (racemic)?
A: half-life [10]: 96 min; half-life [1]: 56 min

Q: What does the source list for `CC(N(C)C)C1(c2ccc(Cl)c(Cl)c2)CCCCC1.Cl` (configuration not stated)?
A: IC50 [11]: 40 µM; IC50 (Cytochrome P450 3A4): > 25 µM; IC50 (Cytochrome P450 2C19): > 25 µM; Activity (Mus musculus [12]): 39%; IC50 (Cytochrome P450 2D6): > 25 µM; Activity (Mus musculus [13]): 27%; IC50 [14]: > 25 µM; IC50 (Cytochrome P450 2C9): > 25 µM

Q: Which t1/2 [1] does the source give for `CC(N)C1(c2ccc(Cl)c(Cl)c2)CCCCC1` (single isomer, unassigned; enantiomer 1) here?
A: The t1/2 was 84 min.

Q: With `CC(N)C1(c2ccc(Cl)c(Cl)c2)CCCCC1` (racemic) as the molecule, how does the half-life [10] read?
A: Its half-life is > 300 min.

Q: And the t1/2 [1]?
A: The t1/2 was 163 min.

Q: For `CC(N(C)C)C1(c2ccc3ccccc3c2)CCCCC1` (racemic), which half-life [10] is on record?
A: The half-life was 33 min.

Q: What about the half-life [1] of the same molecule?
A: Its half-life is 22 min.

Q: Which results are given for `CC(N(C)C)C1(c2ccc3ccccc3c2)CCCCC1` (single isomer, unassigned; form 2)?
A: Drug uptake (Brain [2]): 130 ng/g; Cp (Plasma [3]): 68 ng/mL; Drug uptake (Brain [4]): 564 ng/g; Activity (Mus musculus [5]): Dose-dependent effect; Cp (Plasma [6]): 2 ng/mL; Activity (Mus musculus [7]): inactive; Cp (Plasma [8]): 13 ng/mL; Drug uptake (Brain [9]): 25 ng/g

Q: With `CC(N(C)C)C1(c2ccc3ccccc3c2)CCCCC1.Cl` (single isomer, unassigned; form 2) as the molecule, how does the IC50 [11] read?
A: The IC50 was 4.3 µM.

Q: And the Activity (Mus musculus [15])?
A: The Activity was 14%.

Q: And the IC50 (Cytochrome P450 3A4)?
A: Its IC50 is > 5 µM.

Q: What about the IC50 (Cytochrome P450 2C19) of the same molecule?
A: The IC50 was > 5 µM.

Q: What about the Activity (Mus musculus [12]) of the same molecule?
A: The Activity was 30%.

Q: And the IC50 (Cytochrome P450 2D6)?
A: Its IC50 is > 5 µM.

Q: And the Activity (Mus musculus [13])?
A: The Activity was 37%.

Q: And the IC50 [14]?
A: Its IC50 is > 25 µM.

Q: And the IC50 (Cytochrome P450 2C9)?
A: Its IC50 is > 5 µM.

Q: With `CC(N)C1(c2ccc3ccccc3c2)CCCCC1` (racemic) as the molecule, how does the half-life [10] read?
A: The half-life was 140 min.

Q: What about the half-life [1] of the same molecule?
A: The half-life was 16 min.

Q: Which half-life [10] does the source give for `CC(N)C1(c2ccc(-c3ccccc3)cc2)CCCCC1` (configuration not stated) here?
A: Its half-life is 248 min.

Q: What about the half-life [1] of the same molecule?
A: The half-life was 40 min.

Q: Which half-life [10] does the source give for `CC(C)CC(N)C1(c2ccc(Cl)c(Cl)c2)CCCCC1` (racemic) here?
A: The half-life was 83 min.

Q: What about the half-life [1] of the same molecule?
A: The half-life was 59 min.

Q: What does the source list for `CC(N(C)C)C1(c2ccc(Cl)c(Cl)c2)CCCCC1` (racemic)?
A: half-life [10]: 23 min; half-life [1]: 22 min

Q: For `CNC(C)C1(c2ccc(Cl)c(Cl)c2)CCCCC1.Cl` (single isomer, unassigned; enantiomer 2), which Activity (Mus musculus [15]) is on record?
A: Its Activity is 13%.

Q: What about the Activity (Mus musculus [12]) of the same molecule?
A: The Activity was 3.3%.

Q: And the IC50 (Cytochrome P450 2D6)?
A: The IC50 was 8.5 µM.

Q: And the Activity (Mus musculus [13])?
A: Its Activity is 25%.

Q: And the IC50 [14]?
A: Its IC50 is > 25 µM.

Q: Which IC50 [16] does the source give for `CC(N(C)C)C1(c2ccc3ccccc3c2)CCCCC1` (single isomer, unassigned; form 1) here?
A: Its IC50 is 4.3 µM.

Q: And the t1/2 (Liver microsomes)?
A: Its t1/2 is 32 min.

Q: What about the t1/2 [1] of the same molecule?
A: The t1/2 was 19 min.

Q: Which results are given for `CC(N)C1(c2ccc(OC(C)(C)C)cc2)CCCCC1` (configuration not stated)?
A: IC50 [17]: 5 µM; IC50 [18]: 7.1 µM; IC50 [19]: 1.52 µM

Q: For `CC(N)C1(c2ccc3ccccc3c2)CCCCC1` (single isomer, unassigned; enantiomer 2), which t1/2 (Liver microsomes) is on record?
A: The t1/2 was 164 min.

Q: And the t1/2 [1]?
A: Its t1/2 is 14 min.

Q: With `CC(N(C)C)C1(c2ccc(Cl)c(Cl)c2)CCCCC1` (single isomer, unassigned; enantiomer 1) as the molecule, how does the IC50 [16] read?
A: The IC50 was 40 µM.

Q: What about the t1/2 (Liver microsomes) of the same molecule?
A: The t1/2 was 28 min.

Q: What about the t1/2 [1] of the same molecule?
A: The t1/2 was 25 min.

Q: Which half-life [10] does the source give for `CNC(C)C1(c2ccc3ccccc3c2)CCCCC1` (stereo in doubt; 29) here?
A: Its half-life is 90 min.

Q: What about the half-life [1] of the same molecule?
A: The half-life was 12 min.

Q: For `CC(N)C1(c2cccs2)CCCCC1` (configuration not stated), which half-life [10] is on record?
A: Its half-life is 152 min.

Q: What about the half-life [1] of the same molecule?
A: Its half-life is 137 min.

Q: With `CC(C)CC(N(C)C)C1(c2ccc(Cl)c(Cl)c2)CCCCC1` (racemic) as the molecule, how does the half-life [10] read?
A: Its half-life is 18 min.

Q: And the half-life [1]?
A: Its half-life is > 300 min.

Q: With `CNC(CC(C)C)C1(c2ccc(Cl)c(Cl)c2)CCCCC1` (racemic) as the molecule, how does the half-life [10] read?
A: The half-life was 23 min.

Q: What about the half-life [1] of the same molecule?
A: The half-life was 18 min.

Q: With `CC(N(C)C)C1(c2ccc(Cl)c(Cl)c2)CCCCC1` (configuration not stated) as the molecule, how does the Drug uptake (Brain [2]) read?
A: Its Drug uptake is 114 ng/g.

Q: What about the Cp (Plasma [3]) of the same molecule?
A: Its Cp is 103 ng/mL.

Q: And the Drug uptake (Brain [4])?
A: Its Drug uptake is 845 ng/g.

Q: And the Activity (Mus musculus [5])?
A: Its Activity is “Dose-dependent effect”.

Q: What about the Cp (Plasma [6]) of the same molecule?
A: Its Cp is 2 ng/mL.

Q: What about the Activity (Mus musculus [7]) of the same molecule?
A: Its Activity is “inactive”.

Q: And the Cp (Plasma [8])?
A: Its Cp is 12 ng/mL.

Q: And the Drug uptake (Brain [9])?
A: The Drug uptake was 19 ng/g.

Q: What does the source list for `CC(N)C1(c2cccc3ccccc23)CCCCC1` (configuration not stated)?
A: half-life [10]: > 300 min; half-life [1]: 80 min

Q: Which results are given for `CC(N)C1(c2ccc(OC(F)(F)F)cc2)CCCCC1` (configuration not stated)?
A: IC50 [18]: 0.11 µM; half-life [10]: > 300 min; half-life [1]: 100 min
